According to ChEMBL document CHEMBL6078672, “Chemical probes for the identification of the molecular targets of honokiol” (Eur J Med Chem, 2025):

Assays:
[1] = biological target: T1, 6-phosphogluconate dehydrogenase, decarboxylating (Homo sapiens) (UniProt P52209); experiment: Binding affinity to PGD in human MDA-MB-231 cells assessed as change in melting temperature at 10 uM incubated for 1 hr by cellular thermal shift assay; type: cell-based
T1 sequence (whole entry): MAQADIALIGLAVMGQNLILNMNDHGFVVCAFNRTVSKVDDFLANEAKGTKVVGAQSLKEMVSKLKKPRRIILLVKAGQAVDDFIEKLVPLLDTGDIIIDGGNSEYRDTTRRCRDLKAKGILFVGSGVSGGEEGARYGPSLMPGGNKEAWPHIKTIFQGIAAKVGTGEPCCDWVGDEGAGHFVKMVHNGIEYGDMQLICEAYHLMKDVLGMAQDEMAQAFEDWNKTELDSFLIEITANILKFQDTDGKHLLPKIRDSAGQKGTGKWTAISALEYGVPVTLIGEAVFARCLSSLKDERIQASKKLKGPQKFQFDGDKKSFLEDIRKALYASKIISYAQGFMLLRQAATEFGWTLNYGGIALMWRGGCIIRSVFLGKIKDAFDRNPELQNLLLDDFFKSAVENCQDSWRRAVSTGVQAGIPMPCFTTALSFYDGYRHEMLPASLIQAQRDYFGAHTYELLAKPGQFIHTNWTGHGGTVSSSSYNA

[2] = biological target: T2, Dipeptidyl peptidase 3 (Homo sapiens) (UniProt Q9NY33); experiment: Binding affinity to DPP3 in human MDA-MB-231 cells assessed as change in melting temperature at 10 uM incubated for 1 hr by cellular thermal shift assay; type: cell-based
T2 sequence (whole entry): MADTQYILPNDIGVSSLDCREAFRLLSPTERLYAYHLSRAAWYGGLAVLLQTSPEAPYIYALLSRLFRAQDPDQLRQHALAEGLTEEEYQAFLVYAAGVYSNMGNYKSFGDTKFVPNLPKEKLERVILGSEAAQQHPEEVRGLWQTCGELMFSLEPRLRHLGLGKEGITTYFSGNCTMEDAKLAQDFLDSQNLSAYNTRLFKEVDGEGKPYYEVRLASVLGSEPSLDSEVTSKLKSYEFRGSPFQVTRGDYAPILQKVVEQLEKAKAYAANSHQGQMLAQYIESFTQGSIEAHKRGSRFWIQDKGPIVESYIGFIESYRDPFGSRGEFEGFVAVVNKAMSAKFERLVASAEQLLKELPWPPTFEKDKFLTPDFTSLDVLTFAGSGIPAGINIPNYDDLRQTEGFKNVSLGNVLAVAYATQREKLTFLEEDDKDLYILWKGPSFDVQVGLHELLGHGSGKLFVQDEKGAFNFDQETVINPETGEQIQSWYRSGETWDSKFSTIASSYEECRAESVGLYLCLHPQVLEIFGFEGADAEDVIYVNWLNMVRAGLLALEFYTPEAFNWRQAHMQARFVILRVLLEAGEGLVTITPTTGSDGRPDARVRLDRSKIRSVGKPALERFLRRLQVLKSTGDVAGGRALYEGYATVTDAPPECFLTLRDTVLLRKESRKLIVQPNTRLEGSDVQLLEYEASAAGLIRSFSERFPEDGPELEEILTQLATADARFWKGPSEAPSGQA

[3] = tested on: SK-OV-3; experiment: Cytotoxicity against human SK-OV-3 cells assessed as inhibition of cell growth incubated for 48 hrs by MTT assay; type: functional, cell-based; details: SK-OV-3, 48 h
[4] = tested on: MDA-MB-231; experiment: Binding affinity to CAPN-1 in human MDA-MB-231 cells assessed as change in melting temperature at 10 uM incubated for 1 hr by cellular thermal shift assay; type: cell-based
[5] = tested on: OVCAR-3; experiment: Cytotoxicity against human OVCAR-3 cells assessed as inhibition of cell growth incubated for 48 hrs by MTT assay; type: functional, cell-based; details: OVCAR-3, 48 h
[6] = biological target: T3, Protein LYRIC (Homo sapiens) (UniProt Q86UE4); experiment: Binding affinity to Lyric in human MDA-MB-231 cells assessed as change in melting temperature at 10 uM incubated for 1 hr by cellular thermal shift assay; type: cell-based
T3 sequence (whole entry): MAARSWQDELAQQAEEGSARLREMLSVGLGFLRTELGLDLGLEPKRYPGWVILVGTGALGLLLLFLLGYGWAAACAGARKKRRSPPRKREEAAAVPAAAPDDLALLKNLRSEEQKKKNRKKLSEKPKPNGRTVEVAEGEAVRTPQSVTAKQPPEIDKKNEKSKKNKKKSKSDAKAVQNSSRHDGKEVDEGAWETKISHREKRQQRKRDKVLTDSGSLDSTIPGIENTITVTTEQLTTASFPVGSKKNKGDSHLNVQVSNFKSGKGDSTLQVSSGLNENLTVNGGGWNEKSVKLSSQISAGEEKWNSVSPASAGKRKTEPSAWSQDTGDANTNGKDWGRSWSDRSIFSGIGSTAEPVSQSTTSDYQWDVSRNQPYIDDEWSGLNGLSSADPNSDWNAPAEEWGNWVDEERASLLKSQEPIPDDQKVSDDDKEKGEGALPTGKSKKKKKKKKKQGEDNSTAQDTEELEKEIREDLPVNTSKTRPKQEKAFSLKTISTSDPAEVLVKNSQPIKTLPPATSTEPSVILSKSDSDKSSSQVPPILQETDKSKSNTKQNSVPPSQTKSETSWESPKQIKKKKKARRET

[7] = tested on: MDA-MB-231; experiment: Cytotoxicity against human MDA-MB-231 cells assessed as inhibition of cell growth incubated for 48 hrs by MTT assay; type: functional, cell-based; details: MDA-MB-231, 48 h
[8] = Drug localization in human MDA-MB-231 cells assessed as increase in fluorescent band intensity at 1 to 10 uM incubated for 30 mins in presence of UV irradiation by coomassie brilliant blue staining based SDS-PAGE analysis; type: ADME, cell-based; details: mda-mb-231, 0.5 h, dose 1-10 µM
[9] = Drug localization in human MDA-MB-231 cells assessed as increase in fluorescent band intensity at 20 uM incubated for 30 mins in absence of UV irradiation by coomassie brilliant blue staining based SDS-PAGE analysis; type: ADME, cell-based; details: mda-mb-231, 0.5 h
[10] = Drug localization in human MDA-MB-231 cells assessed as increase in fluorescent band intensity at 10 uM incubated for 30 mins in presence of 2-O-ethylhonokiol by coomassie brilliant blue staining based SDS-PAGE analysis; type: ADME, cell-based; details: mda-mb-231, 0.5 h
[11] = Drug localization in human MDA-MB-231 cells assessed as increase in fluorescent band intensity at 20 uM incubated for 30 mins in presence of UV irradiation by coomassie brilliant blue staining based SDS-PAGE analysis; type: ADME, cell-based; details: mda-mb-231, 0.5 h
[12] = Drug localization in human SK-OV-3 cells assessed as increase in fluorescent band intensity at 10 uM incubated for 30 mins by coomassie brilliant blue staining based SDS-PAGE analysis; type: ADME, cell-based; details: sk-ov-3, 0.5 h
[13] = Drug localization in human MDA-MB-231 cells assessed as increase in fluorescent band intensity at 10 uM incubated for 30 mins in presence of honokiol by coomassie brilliant blue staining based SDS-PAGE analysis; type: ADME, cell-based; details: mda-mb-231, 0.5 h
[14] = Drug localization in human OVCAR-3 cells assessed as increase in fluorescent band intensity at 10 uM incubated for 30 mins by coomassie brilliant blue staining based SDS-PAGE analysis; type: ADME, cell-based; details: ovcar-3, 0.5 h
[15] = Drug localization in human membrane fraction of MDA-MB-231 cells assessed as increase in fluorescent band intensity at 10 uM incubated for 30 mins in presence of 2-O-ethylhonokiol by coomassie brilliant blue staining based SDS-PAGE analysis; type: ADME, cell membranes; details: mda-mb-231, 0.5 h
[16] = Drug localization in human membrane fraction of MDA-MB-231 cells assessed as increase in fluorescent band intensity at 10 uM incubated for 30 mins in presence of honokiol by coomassie brilliant blue staining based SDS-PAGE analysis; type: ADME, cell membranes; details: mda-mb-231, 0.5 h
[17] = Drug localization in human MDA-MB-231 cells assessed as increase in fluorescent band intensity incubated for 30 mins in presence of UV irradiation by coomassie brilliant blue staining based SDS-PAGE analysis; type: ADME, cell-based; details: mda-mb-231, 0.5 h

Compound	IC50 [3]	IC50 [5]	IC50 [7]	other results
C=CCc1ccc(O)c(-c2ccc(O)c(CC=C)c2)c1 [HONOKIOL]	48 µM	51 µM	46 µM	ΔTm [1]: 1.6 °C; ΔTm [2]: 2.3 °C; ΔTm [4]: 4.3 °C; ΔTm [6]: 1 °C
C=CCc1ccc(OCC)c(-c2ccc(O)c(CCCn3cc(CCCC(=O)Nc4ccc(C(=O)c5ccc(NC(=O)CCCC[C@@H]6SC[C@@H]7NC(=O)N[C@@H]76)cc5)cc4)nn3)c2)c1	> 100 µM	> 100 µM	> 100 µM	–
C=CCc1cc(-c2cc(Cc3cn(CCCCCC(=O)Nc4ccc(C(=O)c5ccc(NC(=O)CCCC[C@@H]6SC[C@@H]7NC(=O)N[C@@H]76)cc5)cc4)nn3)ccc2OCC)ccc1O	> 100 µM	> 100 µM	> 100 µM	–
C#CCCC1(CCC(=O)NCCCc2ccc(OCC)c(-c3ccc(O)c(CC=C)c3)c2)N=N1	39 µM	30 µM	37 µM	Drug uptake [8]: Not_active; Drug uptake [9]: Not_active; Drug uptake [10]: Not_active; Drug uptake [11]: Active; Drug uptake [12]: Active; Drug uptake [13]: Not_active; Drug uptake [14]: Active; Drug uptake [15]: Not_active; Drug uptake [16]: Not_active; Drug uptake [17]: Dose-dependent-effect
C=CCc1ccc(OCCCn2cc(CCCC(=O)Nc3ccc(C(=O)c4ccc(NC(=O)CCCC[C@@H]5SC[C@@H]6NC(=O)N[C@@H]65)cc4)cc3)nn2)c(-c2ccc(O)c(CC=C)c2)c1	> 100 µM	> 100 µM	> 100 µM	–
C=CCc1ccc(OCC)c(-c2ccc(O)c(CC=C)c2)c1	43 µM	37 µM	28 µM	–
C=CCc1cc(-c2cc(CCCn3cc(CCCC(=O)Nc4ccc(C(=O)c5ccc(NC(=O)CCCC[C@@H]6SC[C@@H]7NC(=O)N[C@@H]76)cc5)cc4)nn3)ccc2OCC)ccc1O	> 100 µM	> 100 µM	> 100 µM	–
C#CCCC1(CCC(=O)NCCCc2cc(-c3cc(CC=C)ccc3OCC)ccc2O)N=N1	44 µM	50 µM	39 µM	Drug uptake [8]: Not_active; Drug uptake [9]: Not_active; Drug uptake [10]: Not_active; Drug uptake [11]: Not_active; Drug uptake [13]: Not_active; Drug uptake [15]: Not_active; Drug uptake [16]: Not_active; Drug uptake [17]: Dose-dependent-effect
